What is called solubility is the concentration that dissolves in the medium under given conditions. A higher solubility goes with a readily soluble substance. As usually defined, the AUC(0-t) is the area under the concentration-time curve up to a stated or last time point. Higher therefore signals more exposure.

Series [1] in a line: Crystal form long-term stability, impurities by HPLC. The class given is physicochemical. The conditions noted are these: for Content > 0.1% Number of unknown impurities (s) / Maximum single impurity content (%) / Total impurity content (%): 25° C.±2° C., RH 60%±10%, HPLC.
Series [2] can be described thus: Solubility in water at room temperature. The class given is physicochemical. Particulars: for Classification of solubility: classes of the Chinese Pharmacopoeia (2015); for solubility: thermodynamic from solid.
The nature of series [3]: Stability of the crystal form, checked by XRD. It counts as physicochemical. How it is done:
In one embodiment of the invention, XRD analysis of the small sample (batch number: 1072P04-A14S01) was performed by SoliPharmausing Bruker D8 Advance Diffractometer.

The nature of series [4]: Pharmacokinetic experiment in SD rats, plasma by LC-MS/MS. The class given is in vivo. The conditions noted are these: both sexes, Sprague-Dawley (SD), rat, PO, 30 mg/kg. The method, then: A total of 12 SD rats were divided into two groups, 6 in each group, each half of male and female.
In the above plasma sample, protein was precipitated by acetonitrile, the supernatant was diluted 3 times with water, and 5 μL was detected by LC-MS/MS, the results of experiment was shown in table 10: […]

Series [5] concerns the target CDK2/cyclin E (Homo sapiens, UniProt P24941). The experiment in a line: CDK subtype selectivity, 33P-ATP radiometric kinase assay. The class given is biochemical. The text has this: (§1) The mechanism of this method is shown in formula (IV).
(§2) Data was processed with Prism4 Software (GraphPad), and the curve fitting formula was: Y=Bottom+(Top−Bottom)/(1+10^((Log IC50−X)*HillSlope)); wherein, Y is percent inhibition (%); X is logarithm of concentration of the inhibitor.

Series [6] deals with CDK9/cyclin T1 (Homo sapiens, UniProt P50750). Described as above. The class given is biochemical.
From the text: as §1, §2

Series [7] is described as follows: Solid form conversion of amorphous and metastable forms. Particulars: for Solid form stability under moisture: water/moisture, room temperature. It counts as physicochemical.
The nature of series [8]: Dynamic moisture sorption (DVS). The class given is physicochemical. The text has this:
The instruments and methods of Dynamic moisture adsorption in the present invention was shown in table 7, the results of DVS was shown in table 8.

The structures appear in SMILES notation. pIC50: −log10 of the molar value. Where two headings read alike, the source gives them in different places. Bounds are passed on as bounds.

CDK9/cyclin T1, sequence (P50750 whole entry, species assumed): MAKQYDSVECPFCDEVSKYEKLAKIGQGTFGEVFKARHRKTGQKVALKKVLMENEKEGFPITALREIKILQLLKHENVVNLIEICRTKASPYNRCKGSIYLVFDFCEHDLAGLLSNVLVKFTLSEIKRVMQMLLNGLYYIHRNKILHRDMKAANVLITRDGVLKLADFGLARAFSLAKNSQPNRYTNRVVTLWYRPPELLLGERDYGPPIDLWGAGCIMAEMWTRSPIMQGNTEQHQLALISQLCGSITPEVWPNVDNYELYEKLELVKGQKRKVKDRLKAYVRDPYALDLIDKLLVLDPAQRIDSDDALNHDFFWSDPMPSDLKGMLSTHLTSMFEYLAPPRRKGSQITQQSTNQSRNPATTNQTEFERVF
CDK9/cyclin T1, sequence (O60563 whole entry partner, species assumed): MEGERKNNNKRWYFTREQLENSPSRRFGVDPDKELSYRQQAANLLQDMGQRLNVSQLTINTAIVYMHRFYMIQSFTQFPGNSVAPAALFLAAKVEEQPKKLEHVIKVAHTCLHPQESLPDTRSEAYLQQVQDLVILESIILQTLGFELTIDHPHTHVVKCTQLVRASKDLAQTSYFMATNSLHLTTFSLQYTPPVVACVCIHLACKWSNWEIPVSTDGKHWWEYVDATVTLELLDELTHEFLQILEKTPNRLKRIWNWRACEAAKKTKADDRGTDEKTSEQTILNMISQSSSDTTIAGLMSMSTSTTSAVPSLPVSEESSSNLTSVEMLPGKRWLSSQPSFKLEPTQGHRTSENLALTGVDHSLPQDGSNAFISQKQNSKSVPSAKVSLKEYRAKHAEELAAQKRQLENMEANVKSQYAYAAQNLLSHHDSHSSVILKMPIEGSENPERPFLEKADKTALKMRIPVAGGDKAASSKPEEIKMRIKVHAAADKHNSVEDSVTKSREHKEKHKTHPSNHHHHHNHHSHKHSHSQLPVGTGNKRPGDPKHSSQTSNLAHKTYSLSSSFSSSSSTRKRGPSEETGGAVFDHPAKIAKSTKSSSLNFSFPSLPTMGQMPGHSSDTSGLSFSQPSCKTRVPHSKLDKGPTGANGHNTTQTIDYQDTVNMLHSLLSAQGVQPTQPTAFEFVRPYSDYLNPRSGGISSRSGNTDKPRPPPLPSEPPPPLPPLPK

As to `CCN1CCN(Cc2ccc(Nc3ncc(F)c(-c4cc(F)c5nc6n(c5c4)[C@H](C)CCC6)n3)nc2)CC1.O=C(O)C(O)C(O)C(=O)O` [crystal form A of compound II], the “Content > 0.1% Number of unknown impurities (s)” value (“Content > 0.1% Number” below) in series [1] (0 month), in series [1] (3 month) and in series [1] (18 month) was 0 each time. Also, the “Maximum single impurity content (%)” value is on record as 0.05% in series [1] (0 month), 0.05% in series [1] (3 month) and 0.06% in series [1] (18 month). The “Total impurity content (%)” value worked out at 0.10% in series [1] (0 month), 0.13% in series [1] (3 month) and 0.21% in series [1] (18 month). For the same compound, in series [1] (after 18 months), the “Amount of the impurities produced” value is listed as “less than 0.1%”. The Classification of solubility result in series [2] is recorded as “Readily-soluble”. Also, in series [2], the solubility is 100 to 200 mg/mL. In addition, the “XRD pattern after storage (crystal form stability)” value (“XRD pattern after storage” for short) is on record as “not changed” in series [3] (25° C., 60% RH, 10 days); “unchanged” in series [3] (25° C., 60% RH, 10 days, listed as crystal form A of the compound II); “not changed” in series [3] (40° C., 75% RH, 10 days); “unchanged” in series [3] (40° C., 75% RH, 10 days, listed as crystal form A of the compound II); “not changed” in series [3] (dried at 80° C., 24 h); “unchanged” in series [3] (dried at 80° C., 24 h, listed as crystal form A of the compound II). In series [4], this compound showed an AUC(0-t) of 47000 ng·h/mL.

Take `CCN1CCN(Cc2ccc(Nc3ncc(F)c(-c4cc(F)c5nc6n(c5c4)[C@H](C)CCC6)n3)nc2)CC1` [compound I, (R)—N-(5-((4-ethylpiperazin-1-yl)methyl)pyridin-2-yl)-5-fluoro-4-(6-fluoro-1-methyl-1,2,3,4-tetrahydrobenzo[4,5]imidazo[1,2-a]pyridin-8-yl)pyrimidin-2-amine]: in series [1] (0 month), the “Content > 0.1% Number” value amounted to 0, the “Maximum single impurity content (%)” value is recorded as 0.04% and the “Total impurity content (%)” value amounted to 0.11%. Also, in series [1] (3 month), the “Content > 0.1% Number” value is 0, the “Maximum single impurity content (%)” value was determined as 0.10% and the “Total impurity content (%)” value is reported as 0.17%. Further, in series [1] (18 month), the “Maximum single impurity content (%)” value came to 0.22% and the “Total impurity content (%)” value is given as 1.0%. Besides, in series [2], the Classification of solubility result is reported as “Very little soluble” and the solubility was less than 1 mg/mL. For the same compound, the pIC50 in series [5] (stated jointly for CDK1/2/7/9, read-out: IC50 for inhibiting CDK2) is less than 6.40. Also, in series [6] (stated jointly for CDK1/2/7/9, read-out: IC50 for inhibiting CDK9), the pIC50 is less than 6.40. Also, the AUC(0-t) in series [4] was found to be 27700 ng·h/mL.

Regarding `CCN1CCN(Cc2ccc(Nc3ncc(F)c(-c4cc(F)c5nc6n(c5c4)[C@H](C)CCC6)n3)nc2)CC1.CS(=O)(=O)O` [amorphous form of compound III], the “Solid form stability on scale-up” value in series [7] (scaled up to 50 mg) is “unstable”.

With `CCN1CCN(Cc2ccc(Nc3ncc(F)c(-c4cc(F)c5nc6n(c5c4)[C@H](C)CCC6)n3)nc2)CC1.O=C(O)C(O)C(O)C(=O)O` [amorphous form of compound II], the “Solid form stability under moisture” value in series [7] is reported as “readily converted to the crystal form B of compound II”; in series [7] (listed as amorphous form of Compound II) it was “readily forms Form B of Compound II”.

On to `CCN1CCN(Cc2ccc(Nc3ncc(F)c(-c4cc(F)c5nc6n(c5c4)[C@H](C)CCC6)n3)nc2)CC1.CS(=O)(=O)O` [crystal form D of compound III], for which the Classification of solubility result in series [2] is on record as “soluble”. For the same compound, in series [2], the solubility lay within 50 to 100 mg/mL. Also, the “XRD pattern after storage” value is “changed” in series [3] (25° C., 60% RH, 10 days); “changed” in series [3] (40° C., 75% RH, 10 days); “unchanged” in series [3] (dried at 80° C., 24 h, listed as crystal form D of the compound III).

In the case of `CCN1CCN(Cc2ccc(Nc3ncc(F)c(-c4cc(F)c5nc6n(c5c4)[C@H](C)CCC6)n3)nc2)CC1` [compound 2b], the pIC50 was 6.36 in series [5] (read-out: IC50 CDK2/cyclin E) and 6.19 in series [6] (read-out: IC50 CDK9/cyclin T1).

Regarding `CCN1CCN(Cc2ccc(Nc3ncc(F)c(-c4cc(F)c5nc6n(c5c4)[C@H](C)CCC6)n3)nc2)CC1.O=C(O)C(O)C(O)C(=O)O` [crystal form B of compound II], the “Weight change in the range of 0% RH-80% RH” value in series [8] stood at 5.5%. Further, the “Solid form stability on heating” value in series [7] (heated to 180° C.) is “could be converted to crystal form A”.

Regarding `CCN1CCN(Cc2ccc(Nc3ncc(F)c(-c4cc(F)c5nc6n(c5c4)[C@H](C)CCC6)n3)nc2)CC1.CS(=O)(=O)O` [crystal form F of compound III], the “Weight change in the range of 0% RH-80% RH” value in series [8] is 16.6%. In addition, the “XRD pattern after storage” value is “changed” in series [3] (25° C., 60% RH, 10 days); “changed” in series [3] (40° C., 75% RH, 10 days); “changed” in series [3] (dried at 80° C., 24 h, listed as crystal form F the compound III).

Source of the values: patent US12043622B2, “Crystal form of compound for inhibiting the activity of CDK4/6 and use thereof” (Betta Pharmaceuticals Co., Ltd., priority 2019, dated 2024).
